Reference: patent US11136547B2, “Mesoderm induction method having high blood cell differentiation capacity” (Kyoto University, priority 2016, dated 2021)
“Also recorded” adds a separate entry of the source.

B1: NOGGIN: physiological BMP antagonist (protein, UniProt Q13253 28-232, looked up)
Noggin: QHYLHIRPAPSDNLPLVDLIEHPDPIFDPKEKDLNETLLRSLLGGHYDPGFMATSPPEDRPGGGGGAAGGAEDLAELDQLLRQRPSGAMPSEIKGLEFSEGLAQGKKQRLSKKLRRKLQMWLWSQTFCPVLYAWNDLGSRFWPRYVKVGSCFSKRSCSVPEGMVCKPSKSVHLTVLRWRCQRRGGQRCGWIPIQYPIISECKCSC

Key:
KhES3 and H1 cells [1] = test: Initial step intervention in C3H10T1/2 co-culture: occurrence of CD56+APJ+ mesodermal cells on day 4 (flow cytometry); format: cell-based, human; settings: factor added on days 0 to 4; co-culture with C3H10T1/2; compared with control group; n=3
Protocol: (§1) Human ES cells that had been maintenance cultured in MEF were detached from the bottom of the dish in colony form as at the time of passage, and seeded on an inactivated C3H10T1/2 dish that had been prepared the previous day. The seeding rate was roughly 5×10^4 to 2×10^5 cells per 10-cm dish, although this is an estimate because the cells could not be counted. The medium was blood cell differentiation medium to which VEGF had been added to a final concentration of 20 ng/mL. Single cells were collected using 0.05% trypsin EDTA as necessary, the cells were counted, Y27632 was added to […], and the cells were differentiated as single cells.
When analyzing cells during differentiation, the culture supernatant was removed, the cells were washed twice with PBS, and 2 mL/dish of 0.25% trypsin EDTA was added and incubated for 5 minutes at 37° C. The cells were separated into single cells by pipetting with a Pipetman (p1000), and collected in a 15 mL centrifuge tube. Blood cell differentiation medium was added to stop the reaction, and after centrifugation and removal of the supernatant, the cells were suspended in the necessary medium and analyzed.
(§2) Cells in a single-cell state were prepared as necessary, and fluorescent labeled antibodies were also included as necessary in amounts matching the cell numbers. […] These were then diluted with SM and centrifuged, the supernatant was removed, and the cells were suspended in the necessary amount of SMPI and analyzed. […]
Taking cell surface markers as an evaluation standard, KhES3 and H1 cells were used to investigate what changes are seen in the occurrence of CD56+APJ+ cells due to interventions in the initial step. […] For the added concentrations of each factor, the maximum concentration was determined with reference to previous reports, and this was then diluted to investigate concentration (Inman, G. J. et al., Mol. Pharmacol. 62, 65-74 (2002); Xu, R.-H. et al., Nat Meth 2, 185-190 (2005); Huang, S.-M. A. et al., Nature 461, 614-620 (2009)).

KhES3 and H1 cells [2] = test: Intermediate step intervention in C3H10T1/2 co-culture: occurrence of CD43+ blood cells on day 10; format: cell-based, human; settings: factor added in intermediate step days 4 to 7, in the presence of VEGF; compared with control/DMSO group; n=3
Protocol: as §1
When analyzing cells during differentiation, the culture supernatant was removed, the cells were washed twice with PBS, and 2 mL/dish of 0.25% trypsin EDTA was added and incubated for 5 minutes at 37° C. […] Blood cell differentiation medium was added to stop the reaction, and after centrifugation and removal of the supernatant, the cells were suspended in the necessary medium and analyzed.
as §2

Molecule	occurrence of CD56+APJ+ mesodermal cells on day 4 (KhES3 and H1 cells [1])	percentage occurrence of blood cells (CD43+) on day 10 (KhES3 and H1 cells [2])
NC(=O)c1ccc(-c2nc(-c3ccc4c(c3)OCO4)c(-c3ccccn3)[nH]2)cc1 [SB431542]	sharp drop in the ratio of CD56+APJ+ cells at the low concentration point; also recorded: significant decrease in the mesodermal cell population	increased; also recorded: significantly improved
Oc1nc(-c2ccc(C(F)(F)F)cc2)nc2c1CSCC2 [XAV939]	reduction in CD56+APJ+ cells was confirmed; also recorded: tended to decrease	
bFGF: basic fibroblast growth factor		tended to be better
B1	drop in CD56+APJ+ cells was confirmed, but the effect was limited; also recorded: decrease in the mesodermal cell population	
